This experiment has as its system T1, primary mouse cortical neurons.
T1 construct: primary cortical neurons, DIV 10
Description: cells. Details: Protection from NMDA-induced (30 uM, 10 min) neuronal death; Hoechst nuclear morphology by automated microscopy. The conditions noted are these: Cortical neurone, 20 h, read-out: % inhibition, inhibition of NMDA-induced cell death (protection score), 30 min pre-treatment. On the procedure: On DIV 10, compounds were applied to the cells reaching an end concentration of 10 μM. Cells were incubated for 30 min at 37 °C, 5% CO2 before adding NMDA (30 μM). Cells were incubated for another 10 min in the incubator, then washed twice with defined minimal medium containing 10 μM of the respective compound and incubated for an additional 20 h before readout. Untreated (no NMDA) and NMDA-only stimulated wells were treated with 0.1% DMSO. […] After 15 min of incubation at room temperature, cells were washed twice with phosphate buffered saline. […] Dead neurons were identified by amorphous or shrunken nuclei using CellProfiler and CellProfiler Analyst software. For all cell death analyses the experimental unit (N) is defined as an independent experiment using an independent neuronal preparation. For each independent experiment, data from 3 replicate wells (i.e., from 36 images), representing an average of 3000 cells was analyzed per condition. The survival rate S was calculated by dividing the number of living cells by the total number of cells. The survival rate was then used to calculate the protection score according to Scompound−Svehicle/Suntreated−Svehicle×100=%protection , where ‘compound’ refers to compound + NMDA treatment, ‘vehicle’ refers to vehicle + NMDA treatment, and ‘untreated’ refers to DMSO control. […] As a proof of principle, we next used our assay to screen two commercially available drug libraries. In these screens, primary cortical cells were incubated with test compounds at 10 μM concentration for 30 min before addition of 30 μM NMDA. After 10 min NMDA treatment, cells were washed with fresh medium and kept in the presence of test compounds for 20 h until assessment of cell viability. […] This library covers structurally diverse drugs from several fields such as oncology, cardiology, immunology, and neurology/psychiatry.

These results are taken from paper PMC7489219 (Molecular Brain, 2020).

A word on the inhibition: it is the change of the read-out against control, counted positive when it falls.

Structures can show the parent of a compound that is named as a salt.

In the case of `C[C@@H]1[C@H](O)[C@@H](C)/C=C/C=C/CC/C=C/C=C/C=C/C=C/[C@H](O[C@@H]2O[C@H](C)[C@@H](O)[C@H](N)[C@@H]2O)C[C@@H]2O[C@](O)(C[C@@H](O)[C@H](O)CC[C@@H](O)C[C@@H](O)C[C@@H](O)CC(=O)O[C@H]1C)C[C@H](O)[C@H]2C(=O)O` [Nystatin (Mycostatin)], the inhibition at 10 µM amounted to 4%. Consider `O=C(O)Cc1ccccc1Nc1c(Cl)cccc1Cl` [Diclofenac], for which the inhibition at 10 µM is -4.34%.

For `c1cc2c(cc1[C@H]1OC[C@H]3[C@@H]1CO[C@@H]3c1ccc3c(c1)OCO3)OCO2` [Sesamin (Fagarol)], the inhibition at 10 µM came out at 15.7%. With `CC(C)[C@H]1CC[C@H](C(=O)N[C@H](Cc2ccccc2)C(=O)O)CC1` [Nateglinide (Starlix)] the figure was 42.4%; with `O=c1[nH]c(=O)n([C@H]2C[C@H](O)[C@@H](CO)O2)cc1C(F)(F)F` [Trifluridine (Viroptic)], 9.42%; with `O=C(O)/C=C/c1ccc(Cn2ccnc2)cc1` [Ozagrel], -9.99%. On to `COc1cc([C@H]2Oc3cc([C@H]4Oc5cc(O)cc(O)c5C(=O)[C@@H]4O)ccc3O[C@@H]2CO)ccc1O` [Silibinin (Silybin)], for which the inhibition at 10 µM came out at 8.03%. With `Cn1nnc2c(C(N)=O)ncn2c1=O` [Methazolastone], the inhibition at 10 µM was found to be 14.3%.

Consider `CC(C)NCC(O)c1ccc(NS(C)(=O)=O)cc1` (stereo not drawn) [Sotalol (Betapace)], for which the inhibition at 10 µM was -6.66%. On to `CN1CCN2c3ccccc3Cc3ccccc3C2C1` (stereo not drawn) [Mianserin hydrochloride], for which the inhibition at 10 µM is -2.1%. With `CO[C@H]1O[C@@H]2O[C@@]3(C)CC[C@H]4[C@H](C)CC[C@@H]([C@H]1C)[C@@]24OO3` [Artemether (SM-224)] the figure was 1.03%; with `CC1(C)O[C@H]2CC(=O)OC[C@]23[C@H]2CC[C@@]4(C)[C@H](c5ccoc5)OC(=O)[C@H]5O[C@]54[C@]2(C)C(=O)C[C@@H]13` [Limonin], -3.17%; with `N=c1nc(N2CCCCC2)cc(N)n1O` [Minoxidil], -1.14%. Turning to `COc1cc2c(cc1OC)-c1cc3ccc(OC)c(OC)c3c[n+]1CC2` [Palmatine chloride], the inhibition at 10 µM was determined as 8.5%. With `COc1ccc([C@@H]2CC(=O)c3c(O)cc(O[C@@H]4O[C@H](CO)[C@@H](O)[C@H](O)[C@H]4O[C@@H]4O[C@@H](C)[C@H](O)[C@@H](O)[C@H]4O)cc3O2)cc1O` [Neohesperidin] the figure was 4.46%; with `CCCCNc1ccc(C(=O)OCCN(C)C)cc1` [Tetracaine hydrochloride (Pontocaine)], -0.577%.

Turning to `O=C1c2c(O)cc(O)cc2O[C@H](c2ccc(O)c(O)c2)[C@H]1O` [Taxifolin (Dihydroquercetin)], the inhibition at 10 µM is 12.2%. With `O=c1[nH]cnc2c1ncn2[C@H]1CC[C@@H](CO)O1` [Didanosine (Videx)], the inhibition at 10 µM came to 11.6%. With `COc1cc2c(cc1Cc1cccc(Cl)c1F)c(=O)c(C(=O)O)cn2[C@H](CO)C(C)C` [Elvitegravir (GS-9137)], the inhibition at 10 µM is 89.3%. In the case of `CCn1cc(C(=O)O)c(=O)c2cc(F)c(N3CCNC(C)C3)c(F)c21` (stereo not drawn) [Lomefloxacin hydrochloride (Maxaquin)], the inhibition at 10 µM turned out to be 3.08%. As for `Cc1cn(-c2cc(NC(=O)c3ccc(C)c(Nc4nccc(-c5cccnc5)n4)c3)cc(C(F)(F)F)c2)cn1` [Nilotinib (AMN-107)], the inhibition at 10 µM is -7.37%.

`C=C1CC[C@@H]2[C@](C)(CO)[C@H](O)CC[C@@]2(C)[C@@H]1C/C=C1/C(=O)OC[C@H]1O` [Andrographolide]: the inhibition at 10 µM was -4.01%. Regarding `CCOC(=O)C1=C(COCCN)NC(C)=C(C(=O)OC)C1c1ccccc1Cl` (stereo not drawn) [Amlodipine besylate (Norvasc)], the inhibition at 10 µM is -2.44%. To `CN(C)[C@@H](CCOc1cccc2ccccc12)c1ccccc1` [Dapoxetine hydrochloride (Priligy)] belongs -1.89%; to `CCC1=C(C)CN(C(=O)NCCc2ccc(S(=O)(=O)NC(=O)N[C@H]3CC[C@H](C)CC3)cc2)C1=O` [Glimepiride], -11.4%.

In the case of `C[C@]12C=CC(=O)C=C1CC[C@H]1[C@@H]3C[C@@H](O)[C@](O)(C(=O)CO)[C@@]3(C)C[C@H](O)[C@@]12F` [Triamcinolone (Aristocort)], the inhibition at 10 µM was 16.3%. Consider `C[C@H](CCC(=O)O)[C@H]1CC[C@H]2[C@@H]3C[C@H](O)[C@@H]4C[C@H](O)CC[C@]4(C)[C@H]3CC[C@]12C` [Hyodeoxycholic acid (HDCA)], for which the inhibition at 10 µM is -3.21%. As to `C[C@H]1[C@H](C)CC[C@]2(C(=O)O)CC[C@]3(C)C(=CC[C@@H]4[C@@]5(C)CC[C@H](O)C(C)(C)[C@@H]5CC[C@]43C)[C@H]12` [Ursolic acid (Malol)], the inhibition at 10 µM turned out to be 6.94%. With `Nc1nc2c(c(=O)[nH]1)N(C=O)C(CNc1ccc(C(=O)N[C@@H](CCC(=O)O)C(=O)O)cc1)CN2` (stereo partly drawn) [Leucovorin Calcium] the figure was -10.9%. To `Cn1c(=O)c2[nH]cnc2n(C)c1=O` [Aminophylline (Truphylline)] belongs 12%; to `Cc1coc2c1C(=O)C(=O)c1c-2ccc2c1CCCC2(C)C` [Tanshinone IIA (Tanshinone B)], 3.42%.

Turning to `OC[C@H]1O[C@@H](Oc2cc(O)cc(C=Cc3ccc(O)cc3)c2)[C@H](O)[C@@H](O)[C@@H]1O` [Polydatin (Piceid)], the inhibition at 10 µM was found to be 1.2%. With `OC[C@H]1O[C@@H](Oc2ccc(O)cc2)[C@H](O)[C@@H](O)[C@@H]1O` [Arbutin (Uva, p-Arbutin)] the figure was -0.469%. With `COc1nc(N)nc2c1ncn2[C@@H]1O[C@H](CO)[C@@H](O)[C@@H]1O` [Nelarabine (Arranon)] the figure was -9.06%; with `COc1ccc(-c2cc(=O)c3c(O)cc(O)cc3o2)cc1O` [Diosmetin (Luteolin 4-methyl ether)], 8.81%. Consider `NC(=O)c1ncn([C@@H]2O[C@H](CO)[C@@H](O)[C@H]2O)c1N` [Acadesine], for which the inhibition at 10 µM was 4.99%. With `O=c1[nH]cnc2[nH]ncc12` [Allopurinol Sodium (Aloprim)] the figure was 21.4%; with `Nc1ncnc2c1ncn2[C@@H]1O[C@H](CO)[C@@H](O)[C@H]1O` [Adenosine (Adenocard)], 15.3%. To `Nc1nc2ccc(OC(F)(F)F)cc2s1` [Riluzole (Rilutek)] belongs 40.9%; to `COc1ccc(-c2cc(=O)c3c(OC)c(OC)c(OC)c(OC)c3o2)cc1OC` [Nobiletin (Hexamethoxyflavone)], -0.471%. Consider `CCc1nc(N)nc(N)c1-c1ccc(Cl)cc1` [Pyrimethamine], for which the inhibition at 10 µM is -0.769%. To `O=C(O)CSCC(=O)NC1CCSC1=O` (stereo not drawn) [Erdosteine] belongs -0.838%; to `Cc1coc2c1C(=O)C(=O)c1c-2ccc2c(C)cccc12` [Tanshinone I], -5.27%. To `C[C@]12C=CC(=O)C=C1CC[C@@H]1[C@@H]2[C@@H](O)C[C@@]2(C)[C@H]1CC[C@]2(O)C(=O)CO` [Prednisolone (Hydroretrocortine)] belongs 4.33%; to `Cc1cccc(Nc2ccncc2S(=O)(=O)NC(=O)NC(C)C)c1` [Torsemide (Demadex)], 22%.
